Like-named read-outs stand apart in the source and are kept apart here.
Tests used:
[1] = DPPH free radical scavenging assay
Procedure: The free radical scavenging abilities of the extracts were determined using 2,2- Diphenyl-1-picrylhydrazyl (DPPH) assay modified by Brand-Williams et al. with some modification. In oxidized form of DPPH have deep violet color. On getting electrons from antioxidants the deep violet color changes to yellow color. DPPH solution was prepared by dissolving 20 mg in 100 ml methanol (stock solution). From this solution 3 ml were taken and its absorbance was adjusted to 0.75 at 515 nm (control solution). For the formation of free radical, the stock DPPH solution was covered with aluminum foil and kept in dark place for 24 h. For the preparation of stock solutions, 5 mg of each extracts were dissolved in 5 ml of methanol (5000 μg/5 ml). Different dilution (1000, 500, 250, 125 and 62.5 μg/ml) were prepared from stock solutions through serial dilution. About 2 ml from each dilution were mixed with 2 ml of DPPH solution and incubated for 15 min in darkness. The percentage inhibition of DPPH free radical by extracts was calculated using the following formula: 1 %inhibition=A−B/AX100
Where A is the absorbance of DPPH in oxidized state and B is the absorbance of mixture after 15 min of reaction. Ascorbic acid was used as standard antioxidant.

[2] = ABTS free radical scavenging assay
Procedure: These two solutions were mixed thoroughly and kept in dark overnight for the formation of free radical. About 3 ml were taken from this stock solution and its absorbance was adjusted to 0.76 at 745 nm (control solution). About 300 μl of test samples were mixed with 3 ml of ABTS solution and incubated for 15 min at 25 °C. The absorbance of the mixture was measured using a double beam spectrophotometer at 745 nm. The same procedure was followed for the preparation of different dilution of ascorbic acid (positive control). The data was recorded in triplicate and percent ABTS free radicals scavenging activities were calculated using Eq. 1.

[3] = biological target: T1, butyryl cholinesterase from equine (Equus caballus, UniProt P81908); assay: Butyrylcholinesterase inhibition (Ellman's assay); assay type: biochemical; conditions: for inhibition at 125 µg/mL: 125 μg/mL; for inhibition at 1000 µg/mL: 1000 μg/mL
T1 construct: purchased Sigma-Aldrich USA
Procedure: Acetyl cholinesterase (AChE) and butyryl cholinesterase (BChE) were used to evaluate the enzyme inhibitory potential of Bergenia ciliata rhizome extracts and isolated compounds using Ellman’s assay [18]. The mentioned enzymes when act on their respective substrates acetylthiocholine iodide and butyrylthiocholine iodide hydrolyze them which then on complexation with 5-thio-2-nitrobenzoate anion formed from DTNB give yellow color. The color change is recorded after 15 min by spectrophotometer. Phosphate buffer (pH = 8) was prepared by mixing 1.36 g/100 mL, potassium dihydrogen phosphate and 1.74 g/100 mL di-potassium hydrogen phosphate (6 and 94% respectively). The AChE solution was prepared by dissolving 0.5 mg of enzyme in 0.5 ml of phosphate buffer to get 1000 unit/ml and BChE solution was also prepared by dissolving 1 mg in 1 ml of phosphate buffer to get 10 unit/ml. These two solutions were further diluted by phosphate buffer till a final concentration of 0.03 unit/ml and 0.1 unit/ml respectively. DTNB solution (0.0002 M) and ATChI and BTChI (0.0005 M) were prepared and kept in reagent bottles in refrigerator before use.
To each test tube, 100 μl of enzyme and DTNB solutions were added and incubated for 15 min at 25 °C. After this 100 μl substrates (AChEI, BChEI) were added to each test tube and allowed to stand for 15 min. The absorbance of mixtures were recorded at 412 nm. A negative control was prepared by mixing all the above mention components except plant extracts. […] For each sample absorption was recorded for 4 minutes. Percent activities of enzyme and percent inhibition were calculated using following relations. 2 V=∆Abs/∆T 3 %enzyme activity=V/Vmaxx100
Where V is the rate of reaction in the presence of inhibitor and Vmax is the rate of reaction without inhibitor.

[4] = biological target: T2, acetyl cholinesterase from Electric eel (type-VI-S) (Electrophorus electricus, UniProt O42275); assay: biochemical; conditions: isolated compounds, Table 6; for inhibition at 125 µg/mL: 125 μg/mL; for inhibition at 125 µg/mL / inhibition at 250 µg/mL / inhibition at 500 µg/mL / inhibition at 1000 µg/mL: read-out: AChE percent inhibition (mean ± S.E.M); for inhibition at 250 µg/mL: 250 μg/mL; for inhibition at 500 µg/mL: 500 μg/mL; for inhibition at 1000 µg/mL: 1000 μg/mL; for IC50: read-out: AChE IC50 (converted)
T2 construct: purchased Sigma-Aldrich USA type-VI-S

[5] = 62.5 μg/mL, isolated compounds, Table 5
[6] = 125 μg/mL, isolated compounds, Table 5
[7] = 250 μg/mL, isolated compounds, Table 5
[8] = 500 μg/mL, isolated compounds, Table 5
[9] = 1000 μg/mL, isolated compounds, Table 5
[10] = isolated compounds, Table 6, read-out: BChE percent inhibition (mean ± S.E.M)
[11] = 250 μg/mL, isolated compounds, Table 6, read-out: BChE percent inhibition (mean ± S.E.M)
[12] = 500 μg/mL, isolated compounds, Table 6, read-out: BChE percent inhibition (mean ± S.E.M)
[13] = isolated compounds, Table 6, read-out: BChE IC50 (converted)

T2 sequence (O42275 24-633): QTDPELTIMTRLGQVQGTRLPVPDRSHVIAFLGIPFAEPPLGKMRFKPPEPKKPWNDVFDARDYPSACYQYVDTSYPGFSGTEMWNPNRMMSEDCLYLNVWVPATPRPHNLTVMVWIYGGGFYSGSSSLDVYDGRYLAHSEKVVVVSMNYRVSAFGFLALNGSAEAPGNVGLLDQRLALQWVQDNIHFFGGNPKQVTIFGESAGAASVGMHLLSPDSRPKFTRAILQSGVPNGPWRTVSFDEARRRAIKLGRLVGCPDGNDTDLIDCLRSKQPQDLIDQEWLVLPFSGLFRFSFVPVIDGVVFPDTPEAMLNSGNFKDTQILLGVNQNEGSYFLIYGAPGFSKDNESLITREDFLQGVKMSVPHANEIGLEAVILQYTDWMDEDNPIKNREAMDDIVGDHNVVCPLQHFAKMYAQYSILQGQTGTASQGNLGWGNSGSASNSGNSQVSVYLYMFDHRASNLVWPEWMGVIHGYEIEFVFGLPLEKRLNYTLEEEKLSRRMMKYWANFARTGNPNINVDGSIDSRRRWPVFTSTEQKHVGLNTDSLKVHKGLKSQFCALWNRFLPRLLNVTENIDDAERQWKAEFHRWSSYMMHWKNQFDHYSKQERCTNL
T1 sequence (P81908 whole entry): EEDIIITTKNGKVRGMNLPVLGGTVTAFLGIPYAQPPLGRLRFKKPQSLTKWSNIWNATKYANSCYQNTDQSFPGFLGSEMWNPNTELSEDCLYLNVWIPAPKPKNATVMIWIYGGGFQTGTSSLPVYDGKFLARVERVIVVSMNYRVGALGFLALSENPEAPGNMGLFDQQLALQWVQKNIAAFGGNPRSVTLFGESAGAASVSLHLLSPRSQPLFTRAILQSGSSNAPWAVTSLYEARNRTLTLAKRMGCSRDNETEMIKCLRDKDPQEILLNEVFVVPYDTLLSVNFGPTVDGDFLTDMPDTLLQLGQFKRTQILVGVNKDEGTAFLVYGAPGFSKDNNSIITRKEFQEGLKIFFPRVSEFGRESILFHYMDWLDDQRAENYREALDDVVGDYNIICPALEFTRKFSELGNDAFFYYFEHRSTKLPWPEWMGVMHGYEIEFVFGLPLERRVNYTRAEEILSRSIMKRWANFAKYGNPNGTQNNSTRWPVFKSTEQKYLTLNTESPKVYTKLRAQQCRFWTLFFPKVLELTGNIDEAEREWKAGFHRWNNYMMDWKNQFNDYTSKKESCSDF

| Compound | DPPH percent inhibition (mean ± S.E.M) [1, 5] | DPPH percent inhibition (mean ± S.E.M) [1, 6] | DPPH percent inhibition (mean ± S.E.M) [1, 7] | DPPH percent inhibition (mean ± S.E.M) [1, 8] | DPPH percent inhibition (mean ± S.E.M) [1, 9] | DPPH IC50 ([1]; isolated compounds, Table 5) | ABTS percent inhibition (mean ± S.E.M) [2, 5] | ABTS percent inhibition (mean ± S.E.M) [2, 6] | ABTS percent inhibition (mean ± S.E.M) [2, 7] | ABTS percent inhibition (mean ± S.E.M) [2, 8] | ABTS percent inhibition (mean ± S.E.M) [2, 9] | ABTS IC50 ([2]; isolated compounds, Table 5) | inhibition at 125 µg/mL [3, 10] | inhibition at 250 µg/mL [3, 11] | inhibition at 500 µg/mL [3, 12] | inhibition at 1000 µg/mL [3, 10] | inhibition at 125 µg/mL [4] | inhibition at 250 µg/mL [4] | inhibition at 500 µg/mL [4] | inhibition at 1000 µg/mL [4] | other results |
| --- | --- | --- | --- | --- | --- | --- | --- | --- | --- | --- | --- | --- | --- | --- | --- | --- | --- | --- | --- | --- | --- |
| O=C1O[C@H]([C@@H](O)CO)C(O)=C1O [Ascorbic acid, reference compound] | 53.78 ± 0.76% | 62.90 ± 0.85% | 71.34 ± 2.16% | 80.45 ± 0.96% | 92.67 ± 0.73% | 50 µg/mL | 50.88 ± 0.32% | 58.90 ± 0.48% | 68.93 ± 0.45% | 80.29 ± 0.79% | 89.94 ± 0.86% | 62 µg/mL | – | – | – | – | – | – | – | – | DPPH percent inhibition (mean ± S.E.M) ([1]; 62.5 μg/mL, extracts, Table 2): 52.88 ± 0.32%; DPPH percent inhibition (mean ± S.E.M) ([1]; 125 μg/mL, extracts, Table 2): 62.90 ± 0.48%; DPPH percent inhibition (mean ± S.E.M) ([1]; 250 μg/mL, extracts, Table 2): 71.93 ± 0.45%; DPPH percent inhibition (mean ± S.E.M) ([1]; 500 μg/mL, extracts, Table 2): 80.29 ± 0.79%; DPPH percent inhibition (mean ± S.E.M) ([1]; 1000 μg/mL, extracts, Table 2): 92.94 ± 0.86%; DPPH IC50 ([1]; extracts, Table 2): 50 µg/mL; ABTS percent inhibition (mean ± S.E.M) ([2]; 62.5 μg/mL, extracts, Table 2): 49.78 ± 0.76%; ABTS percent inhibition (mean ± S.E.M) ([2]; 125 μg/mL, extracts, Table 2): 58.90 ± 0.85%; ABTS percent inhibition (mean ± S.E.M) ([2]; 250 μg/mL, extracts, Table 2): 68.34 ± 2.16%; ABTS percent inhibition (mean ± S.E.M) ([2]; 500 μg/mL, extracts, Table 2): 80.45 ± 0.96%; ABTS percent inhibition (mean ± S.E.M) ([2]; 1000 μg/mL, extracts, Table 2): 89.67 ± 0.73%; ABTS IC50 ([2]; extracts, Table 2): 64 µg/mL |
| COc1ccc2c3c1O[C@H]1C[C@@H](O)C=C[C@@]31CCN(C)C2 [Galanthamine, reference compound] | – | – | – | – | – | – | – | – | – | – | – | – | 62.43 ± 0.39% | 71.8 ± 0.48% | 86.51 ± 0.77% | 92.26 ± 0.92% | – | – | – | – | inhibition at 250 µg/mL ([3]; 250 μg/ml, extracts, Table 3, read-out: Percent BChE (mean ± SEM) inhibition): 76.72 ± 0.72%; inhibition at 500 µg/mL ([3]; 500 μg/ml, extracts, Table 3, read-out: Percent BChE (mean ± SEM) inhibition): 84.7 ± 1.2% |
| O=c1c(O)c(-c2ccc(O)cc2O)oc2cc(O)cc(O)c12 [Morin, 2-(2,4-Dihydroxyphenyl)-3,5,7-trihydroxychromen-4-one] | 40.85 ± 0.94 % | 48.72 ± 1.11 ^ns % | 60.25 ± 2.28 % | 72.72 ± 1.56 % | 83.93 ± 0.72 % | 105 µg/mL | 30.50 ± 1.43 % | 44.15 ± 0.56 % | 58.04 ± 2.44 % | 70.67 ± 1.02 % | 80.86 ± 1.09 % | 145 µg/mL | 51.1 ± 0.56% | 60.51 ± 0.5% | 68.4 ± 2.22% | 80.46 ± 0.76% | 56.3 ± 1.45% | 68.8 ± 0.8% | 77.2 ± 0.91% | 85.5 ± 3.19% | IC50 [4]: 212 µM; IC50 [3, 13]: 384 µM |
| Oc1cccc(O)c1O [Pyrogallol, Benzene-1,2,3-triol] | 48.72 ± 0.89 ^ns % | 59.93 ± 2.18 ^ns % | 70.30 ± 1.05 ^ns % | 81.64 ± 1.33 ^ns % | 89.35 ± 0.92 ^ns % | 68 µg/mL | 39.60 ± 1.39 % | 53.26 ± 1.62 % | 66.42 ± 0.90 ^ns % | 77.81 ± 1.09 ^ns % | 87.02 ± 0.81 ^ns % | 85 µg/mL | 58.3 ± 0.93% | 71.2 ± 1.38% | 80.35 ± 0.3% | 92 ± 1.89% | 66.2 ± 2.14% | 80.12 ± 0.62% | 87.4 ± 1.51% | 94.35 ± 0.72% | IC50 [4]: 222 µM; IC50 [3, 13]: 555 µM |
| C[C@@H]1O[C@@H](OC[C@H]2O[C@@H](Oc3c(-c4ccc(O)c(O)c4)oc4cc(O)cc(O)c4c3=O)[C@H](O)[C@@H](O)[C@@H]2O)[C@H](O)[C@H](O)[C@H]1O [Rutin, 3,3,4,5,7-pentadroxyflavones-3-rutinoside] | 35.38 ± 2.28 % | 46.63 ± 1.17 % | 57.47 ± 0.93 % | 68.43 ± 1.40 % | 80.90 ± 1.27 % | 150 µg/mL | 29.75 ± 2.18 % | 44.30 ± 0.79 % | 57.56 ± 1.42 % | 69.05 ± 0.64 % | 78.33 ± 0.63 % | 183 µg/mL | 45 ± 3.79% | 56.7 ± 0.7% | 62.5 ± 1.72% | 72 ± 0.86% | 48.1 ± 0.64% | 60.2 ± 2.35% | 66.72 ± 0.62% | 75.1 ± 1.41% | IC50 [4]: 193 µM; IC50 ([3]; BChE IC50, isolated compounds, Table 6): 282 µM |
